# Measurements reported in patent EP1477169A1, “Reactions of polymorphs of N-methyl-N-(3-(3-(2-thienylcarbonyl)-pyrazol-(1,5-alpha)-pyrimidin-7-yl)phenyl)acetamide” (Neurocrine Biosciences, Inc., priority 1999, dated 2001).
# Key:
# [1] = Approximate solubility in various solvents; assay type: physicochemical; settings: for Solubility: approximate
# Excerpt: In addition, the lower melting point polymorph, Form II, also has significant advantages over the polymorphic mixture of Compound 1 as prepared according to known techniques. […] Form II is generally more soluble in polar and protic solvents than is Form I. Enhanced solubility of a compound will generally increase the bioavailability of that compound. When absorption of a drug is dissolution rate limited, use of the more soluble and faster dissolving form improves the rate and extent of bioavailability.
# [2] = Physical (polymorphic) stability of the solid form; assay type: physicochemical; settings: in words, compared with the polymorphic mixture of Compound 1; stability toward conversion to a different polymorphic form
# Excerpt: The polymorph Form I is considered a heat stable form of Compound 1. By "heat stable" or ''physically stable" is meant that the Form I is stable toward conversion to the polymorph Form II; although, it may be labile toward degradation to other compounds.
# As the higher melting point polymorph, Form I has significant advantages over the polymorphic mixture of Compound 1 prepared according to known techniques. […] This, in turn, enhances the milling and compaction properties of the drug substance.
Compound,Solubility ([1]; Acetone),Solubility ([1]; Acetonitrile),Solubility ([1]; De-ionized water),Solubility ([1]; Diethyl ether),"Solubility ([1]; Ethanol, absolute (100%))",Solubility ([1]; Ethyl acetate),Solubility ([1]; Hexane),Solubility ([1]; Isopropanol),Solubility ([1]; Methanol),"Solubility ([1]; Polyethylene Glycol 400, NF)",Solubility ([1]; Tetrahydrofuran),Solubility ([1]; Toluene),physical stability [2],"solubility in a range of organic solvents ([1]; in words, compared with Form I)","water solubility ([1]; in words, compared with Form I)"
"CC(=O)N(C)c1cccc(-c2ccnc3c(C(=O)c4cccs4)cnn23)c1 [Form I, N-methyl-N-(3-{3-[2-thienylcarbonyl]-pyrazol-[1,5-α]-pyrimidin-7-yl}phenyl)acetamide]",4842 µg/mL,6246 µg/mL,8.3 µg/mL,80 µg/mL,1426 µg/mL,1600 µg/mL,41 µg/mL,441 µg/mL,1740 µg/mL,3259 µg/mL,9964 µg/mL,997 µg/mL,superior physical stability,,
"CC(=O)N(C)c1cccc(-c2ccnc3c(C(=O)c4cccs4)cnn23)c1 [Form II, N-methyl-N-(3-{3-[2-thienylcarbonyl]-pyrazol-[1,5-α]-pyrimidin-7-yl}phenyl)acetamide]",6873 µg/mL,8928 µg/mL,18.8 µg/mL,51 µg/mL,1722 µg/mL,2160 µg/mL,50 µg/mL,457 µg/mL,1915 µg/mL,10100 µg/mL,14740 µg/mL,645 µg/mL,,generally greater solubility in a range of organic solvents as compared to Form I,superior water solubility over Form I
